Source: patent US20240369511A1, “INTEGRATED ELECTROCHEMICAL APTASENSORS FOR MEASURING CELL DEATH AND CYTOKINE ACTIVITY FROM INTACT TISSUE SAMPLES” (University of Washington, priority 2023, published 2024)
“And” between values parts separate entries of the source, which are not always exact repeats. Equal entries are not always repeated.

Legend:
[1] = system: cuboids from a human colorectal tumor biopsy; assay: CytC in supernatant of drug-treated human tumor cuboids, aptasensor platform; assay type: cell-based; details: three days treatment; Staurosporine 1 μM, FOLFOX 1 μg/mL 5FU+1 μg/mL Oxaliplatin, FOLFIRI 5FU+Irinotecan
Procedure: (§1) Measurement of CytC from the supernatant of human microdissected cancer tissue cultured with drugs using the aptasensor platform. A study was conducted to assess the aptasensor platform's ability to quantify CytC secretion from human cuboids after drug treatments for three days in culture with Staurosporine, FOLFOX (a combination of fluorouracil and oxaliplatin), and FOLFIRI (a combination of fluorouracil and irinotecan), in comparison to the dimethyl sulfoxide (DMSO) vehicle control. Uniform-sized cuboids were prepared from a human colorectal tumor biopsy. Each drug condition was prepared in duplicate. Subsequently, the supernatants were collected and the level of CytC released from the cuboids after cell death was measured using the aptasensor platform. To validate the platform's measurements, the results were compared with those obtained from ELISA (FIG. 4D). […] In some cases, the platform even indicated higher production rates. Duplicates for both the sensor and for the ELISA were consistent. […] While the trend in measurements for supernatant 1 and supernatant 2 was similar between sensor reading and ELISA, the higher concentration observed in sensor readings may stem from variations in the sensor-specific calibration curves.
(§2) Human colorectal cancer tumor supernatant. Colorectal tumor biopsy was obtained from a person with metastatic cancer who had been off treatment for a year. […]

[2] = system: cuboids from a human colorectal tumor biopsy; assay: CytC in supernatant of drug-treated human tumor cuboids, ELISA; assay type: cell-based; details: three days treatment; duplicated supernatant samples; same drug concentrations
Procedure: as §1, §2

CytC [3] = molecular target: T1, CytC (Homo sapiens, UniProt P99999); assay: CytC aptasensor calibration curve by square wave voltammetry; assay type: binding
T1 construct: purchased RayBiotech Life, Inc (GA, USA)
Text: (§3) Characterization of the electrochemical aptamer-based sensor. An electrochemical sensor with a modified aptamer that recognizes CytC was developed, enabling real-time monitoring of CytC increases in the supernatant due to cell death in cuboids during drug screening. The aptamer sequences were modified with a redox-active molecule, methylene blue (MB), at the distal end of the aptamer. As shown at FIG. 2A, the binding of the CytC target induces a rapid and reversible conformational change in the aptamer, increasing the electron transfer (eT) rate between the MB reporter and the WE surface. This change in eT results in a measurable variation in redox current, easily detectable using square wave voltammetry (SWV). Changes in peak current height were monitored, which correlates with the proximity of the MB redox tag to the electrode. The performance of the aptasensors in response to varying concentrations of CytC (ranging from 1 to 30,000 ng/mL) is presented at FIG. 2B. At a recording frequency of 50 Hz, the peak current height of the sensors decreases as the CytC concentration increases.
Electrochemical signal measurement. All the electrochemical measurements were performed using a Digi-Ivy potentiostat (DY-2219, Digi-Ivy, Austin, TX, USA). For the SWV measurements, the sensors were integrated from 0.0 to −0.5 V (versus Ag/AgCl) with 40-mV amplitude and a voltage increment of 1 mV suitable frequency setting (ranging from 10 Hz to 1,000 Hz). A conventional three-electrode cell was used in electrodeposition, Ag/AgCl with 3M KCl as reference electrode, and platinum wire (0.05 mm diameter, Alfa Aesar, MA, USA) as counter electrode.
Quantitative analysis and characterization of the Cyt C aptamer sensor. The CytC sensors were characterized in cultured medium DMEM-F12-10% FBS with spiked human CytC recombinant (reconstituted in PBS). The SWV measurement for aptasensors was scanned from −0.5 V to 0 V with 40-mV amplitude and a step potential of 1 mV. The frequency is 50 Hz and 1,000 Hz.

CytC [4] = molecular target: T1, CytC; assay: Binding kinetics of the CytC aptasensor (temporal response, flow injection analysis)
Text: Binding kinetics of the CytC aptasensor. The binding kinetics of aptamer-protein complexes were further evaluated. […] Next, the monomolecular dissociation rate constant (koff) was computed. The aptasensor platform was adapted for flow injection analysis under constant flow. The sensor platform was modified to incorporate an inlet and outlet loop injection system. With this setup, the different phases of aptamer-target interaction were able to be measured, including association, dissociation, and equilibrium. […] Initially, the aptamer remained unbound in the absence of the target, producing baseline levels of current. The introduction of the target initiated the association phase, which led to the occupation of aptamer binding sites. This phase continued until a steady-state or equilibrium point was attained. Subsequently, the semi-automated target removal initiated the dissociation phase of the aptamer-target complex. The continuous flow of the medium enabled the aptasensor to recover eventually, gradually returning to the baseline levels within approximately 12 hrs.
Modify sensor platform to become injection analysis platform for characterization of binding kinetics. The existing platform was modified by introducing an additional PMMA layer to establish channels and the well layer altered to create a sealed chamber for flow injection. The PMMA layer (0.3 mm thick) was lined with 3M300LSE adhesive before being precisely cut using a CO2 laser. The culture medium was injected through tubing (Tygona, Cole-Parmer, IL, USA) connected to the injector loop at a 2.5 mL/min flow rate using a Fusion 200 syringe pump (Chemyx, Inc, TX, USA). Following a 5-minute equilibration period during which the sensors were exposed to continuous medium flow, CytC was introduced into the flow as the target compound.

CytC [5] = molecular target: T1, CytC; assay: Selectivity of the CytC aptasensor against interferents and drugs; assay type: binding
Procedure: Selectivity of the CytC aptasensor. Selectivity is a factor for the practical application of these sensors in tumor-on-a-chip models for drug screening. To assess the selectivity of the sensors, experiments were conducted in which the sensor's responses to CytC (100 ng/mL) vs. responses in the presence of other potentially interfering molecules (also at 100 ng/mL) were measured. Measurements were performed in a growth medium at 50 Hz.
Ex-vivo monitoring of CytC from microdissected tumor tissues after drug treatment in culture using the aptasensor platform. The sensor platform's ability to quantify CytC secretion from cuboids was evaluated at different time points during an extended culture period (48 hrs). Cuboids from human U87 glioma cell-derived tumors grown in athymic nude mice were prepared. […] Next, the sensor platform's ability to measure CytC secretion from cuboids in response to exposure to cytotoxic drugs was evaluated. Initially, the baseline signal was measured with the encapsulated cuboids on the WE before exposing U87 cuboids to different concentrations of cisplatin (a cytotoxic chemotherapy drug, FIG. 5C), sepantronium bromide, (YM-155, a survivin inhibitor and potential anti-cancer drug, FIG. 5D), and mocetinostat (MOC, a histone deacetylases inhibitor cancer drug, FIG. 5E) for 48 hrs. […]

Cytochrome c (CytC) = Cytochrome c (CytC) (Homo sapiens, UniProt P99999 P99999:2-105); assay: apparent KD, electrochemical aptamer sensor on Au, square wave voltammetry 50 Hz, Langmuir-Hill fit; text also prints 515±130 μM (6.19 ng/mL corresponds to abou); details: tags: RayBiotech Life recombinant human cytochrome c; label: 3' methylene blue
Text: as §3

T1 sequence (P99999 whole entry): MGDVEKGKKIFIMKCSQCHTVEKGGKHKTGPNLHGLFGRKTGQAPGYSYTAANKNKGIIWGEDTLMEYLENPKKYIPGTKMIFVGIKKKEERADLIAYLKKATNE
Chain of Cytochrome c (CytC) (P99999 2-105, one chain of several): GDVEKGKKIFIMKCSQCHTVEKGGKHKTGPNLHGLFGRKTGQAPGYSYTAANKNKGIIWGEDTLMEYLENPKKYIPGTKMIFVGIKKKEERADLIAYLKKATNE

CN[C@@H]1C[C@H]2O[C@@](C)([C@@H]1OC)n1c3ccccc3c3c4c(c5c6ccccc6n2c5c31)C(=O)NC4 [Staurosporine]
CytC production relative to DMSO control vehicle (aptasensor platform) [1]: ~3 fold | CytC production relative to DMSO control vehicle (ELISA) [2]: 4.23 fold

5′-/ThioMC6-D/CC GTGTCTGGGGCCGACCGGCGCATTGGGTACGTTGTTGC/AmMO/-3′ (DNA CCGTGTCTGGGGCCGACCGGCGCATTGGGTACGTTGTTGC; chemistry not fully specified) [CytC aptasensor, DNA aptamer recognizing cytochrome C, modified with methylene blue redox reporter, immobilized on gold working electrode]
detectable relevant concentrations (CytC [3]; 50 Hz): up to 3.32 μM | dynamic range (CytC [3]; 50 Hz): up to 39,580 ng/mL | apparent dissociation constant, KD (CytC [3]; calibration curve at 50 Hz, nonlinear regression fit to Langmuir-Hill isotherm): 6.19 ± 1.57 ng/mL and ~6 ng/mL | time to return to baseline (dissociation) (CytC [4]): 12 h | response time to target (CytC [4]; after addition of 1,000 ng/ml CytC, SWV 50 Hz): ≤ 100 s | time to return to baseline levels (dissociation) (CytC [4]; continuous flow of medium after target removal): approximately 12 hrs | signal gain for CytC vs interfering molecules (CytC [5]; CytC 100 ng/mL vs FGF, EGF, IL-2, BSA at 100 ng/mL, growth medium, 50 Hz): higher signal gain | signal gain for CytC vs drugs used for treatment (CytC [5]; CytC 100 and 2000 ng/mL vs DMSO, MOC, FOLFOX, Cisplatin, Staurosporine, YM-155, culture medium, 50 Hz, 1,000 Hz, KDM): higher signal gain

B1: CytC aptamer (SEQ ID NO:1) (ssDNA)
DNA: CCGTGTCTGGGGCCGACCGGCGCATTGGGTACGTTGTTGC
modifications: 5' ThioMC6-D (disulfide C6 thiol, attached to gold electrode); 3' amino modifier conjugated to methylene blue
binding result (Cytochrome c (CytC)): binds
